# Assay results reported in patent publication US9150566B2, “2-(1,2,3-triazol-2-yl)benzamide and 3-(1,2,3-triazol-2-YL)picolinamide derivatives as orexin receptor antagonists” (ACTELION PHARMACEUTICALS LTD., priority 2011, dated 2015).
# Where two headings read alike, the source gives them in different places.
# Legend:
# human orexin-1 receptor = human orexin-1 receptor (Homo sapiens (Human), UniProt O43613); assay: In vitro intracellular calcium measurements (FLIPR), antagonistic activity on orexin-1 receptor; format: cell-based; conditions: read-out: IC50 OX1
# Chain of human orexin-1 receptor (O43613 whole entry): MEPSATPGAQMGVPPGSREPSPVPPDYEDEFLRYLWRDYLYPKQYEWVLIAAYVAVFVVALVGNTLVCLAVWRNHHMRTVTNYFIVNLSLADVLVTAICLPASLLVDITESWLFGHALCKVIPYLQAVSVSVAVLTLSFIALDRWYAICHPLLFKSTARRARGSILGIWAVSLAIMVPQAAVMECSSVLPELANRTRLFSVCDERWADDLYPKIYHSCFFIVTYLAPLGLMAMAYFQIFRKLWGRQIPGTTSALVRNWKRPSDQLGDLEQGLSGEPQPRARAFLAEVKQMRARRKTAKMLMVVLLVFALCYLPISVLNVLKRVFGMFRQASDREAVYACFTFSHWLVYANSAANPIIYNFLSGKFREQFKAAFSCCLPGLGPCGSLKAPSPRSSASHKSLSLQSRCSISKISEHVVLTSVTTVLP
# Summary of the method: (§1)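 Recombinant CHO lines bearing human OX1 or OX2 receptors received test antagonist 120 min before agonist addition.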
# human orexin-2 receptor = human orexin-2 receptor (Homo sapiens (Human), UniProt O43614); assay: In vitro intracellular calcium measurements (FLIPR), antagonistic activity on orexin-2 receptor; format: cell-based; conditions: read-out: IC50 OX2
# Chain of human orexin-2 receptor (O43614 whole entry): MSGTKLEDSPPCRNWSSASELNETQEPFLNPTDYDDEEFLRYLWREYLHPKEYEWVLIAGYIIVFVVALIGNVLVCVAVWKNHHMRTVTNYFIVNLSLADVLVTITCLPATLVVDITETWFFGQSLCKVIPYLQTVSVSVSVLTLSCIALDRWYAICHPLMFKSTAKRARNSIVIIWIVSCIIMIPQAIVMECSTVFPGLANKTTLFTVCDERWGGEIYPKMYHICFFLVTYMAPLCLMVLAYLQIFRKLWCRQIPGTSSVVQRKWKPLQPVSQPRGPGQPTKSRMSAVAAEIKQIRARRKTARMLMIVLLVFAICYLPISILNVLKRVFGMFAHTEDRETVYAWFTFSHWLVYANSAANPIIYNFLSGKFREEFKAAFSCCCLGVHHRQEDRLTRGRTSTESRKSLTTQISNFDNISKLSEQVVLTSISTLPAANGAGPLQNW
# Summary of the method: as §1
# CYP3A4 = CYP3A4 (Homo sapiens (Human), UniProt P08684); assay: CYP3A4 inhibition assay (human liver microsomes, testosterone 6β-hydroxylation); conditions: read-out: CYP3A4 IC50, 40 μM testosterone
# Chain of CYP3A4 (P08684 whole entry): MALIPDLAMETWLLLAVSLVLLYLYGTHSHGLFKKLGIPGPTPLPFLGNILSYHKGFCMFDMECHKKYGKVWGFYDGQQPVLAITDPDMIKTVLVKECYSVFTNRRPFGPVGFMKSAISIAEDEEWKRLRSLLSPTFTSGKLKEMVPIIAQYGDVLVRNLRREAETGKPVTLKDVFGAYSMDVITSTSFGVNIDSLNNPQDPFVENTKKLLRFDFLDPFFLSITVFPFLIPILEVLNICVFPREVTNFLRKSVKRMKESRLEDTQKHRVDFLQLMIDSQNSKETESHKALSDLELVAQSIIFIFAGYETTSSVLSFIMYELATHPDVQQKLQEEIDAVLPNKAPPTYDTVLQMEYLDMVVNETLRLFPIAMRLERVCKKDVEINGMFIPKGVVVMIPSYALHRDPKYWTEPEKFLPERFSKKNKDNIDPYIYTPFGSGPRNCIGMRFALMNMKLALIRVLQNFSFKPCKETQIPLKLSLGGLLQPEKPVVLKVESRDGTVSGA
# [1] = CHO cells expressing human orexin-1 receptor, FLIPR, 3 nM orexin-A agonist, 120 min antagonist incubation, geometric mean if determined several times
# [2] = CHO cells expressing human orexin-2 receptor, FLIPR, 3 nM orexin-A agonist, 120 min antagonist incubation, geometric mean if determined several times
IC50 (human orexin-1 receptor; [1]) [nM],IC50 (human orexin-2 receptor; [2]) [nM],IC50 (CYP3A4) [nM],SMILES,IC50 (human orexin-1 receptor) [nM],IC50 (human orexin-2 receptor) [nM]
5,1220,9600,"Cc1ccc(C(=O)N2C[C@@H](C)OC[C@H]2Cc2cccc(-n3nccn3)c2)c(-n2nccn2)c1C [Example 99, (3,4-Dimethyl-2-[1,2,3]triazol-2-yl-phenyl)-[(2R,5R)-2-methyl-5-(3-[1,2,3]triazol-2-yl-benzyl)-morpholin-4-yl]-methanone]",–,–
25,1510,17000,"Cc1ccc(-n2nccn2)c(C(=O)N2CCOC[C@@]2(C)Cc2cccc(-n3nccn3)c2)c1 [Example 102, [(R)-3-Methyl-3-(3-[1,2,3]triazol-2-yl-benzyl)-morpholin-4-yl]-(5-methyl-2-[1,2,3]triazol-2-yl-phenyl)-methanone]",–,–
3,335,14000,"Cc1cccc(C(=O)N2CCOC[C@H]2Cc2cc(Cl)cc(-n3nccn3)c2)c1-n1nccn1 [Example 106, [(R)-3-(3-Chloro-5-[1,2,3]triazol-2-yl-benzyl)-morpholin-4-yl]-(3-methyl-2-[1,2,3]triazol-2-yl-phenyl)-methanone]",–,–
5,435,22000,"O=C(c1cccc(Cl)c1-n1nccn1)N1CCOC[C@H]1Cc1cccc(-n2nccn2)c1 [Example 107, (3-Chloro-2-[1,2,3]triazol-2-yl-phenyl)-[(R)-3-(3-[1,2,3]triazol-2-yl-benzyl)-morpholin-4-yl]-methanone]",–,–
10,855,46000,"C[C@@H]1CN(C(=O)c2ccccc2-n2nccn2)[C@H](Cc2cccc(-c3ncccn3)c2)CO1 [Example 108, [(2R,5R)-2-Methyl-5-(3-pyrimidin-2-yl-benzyl)-morpholin-4-yl]-(2-[1,2,3]triazol-2-yl-phenyl)-methanone]",–,–
1,105,43000,"Cc1ccc(-n2nccn2)c(C(=O)N2C[C@@H](C)OC[C@H]2Cc2cccc(-c3ncccn3)c2)c1 [Example 109, [(2R,5R)-2-Methyl-5-(3-pyrimidin-2-yl-benzyl)-morpholin-4-yl]-(5-methyl-2-[1,2,3]triazol-2-yl-phenyl)-methanone]",–,–
2,176,> 50000,"Cc1ccc(C(=O)N2C[C@@H](C)OC[C@H]2Cc2cccc(-c3ncccn3)c2)c(-n2nccn2)c1 [Example 110, [(2R,5R)-2-Methyl-5-(3-pyrimidin-2-yl-benzyl)-morpholin-4-yl]-(4-methyl-2-[1,2,3]triazol-2-yl-phenyl)-methanone]",–,–
7,983,40000,"Cc1cccc(C(=O)N2C[C@@H](C)OC[C@H]2Cc2cccc(-c3ncccn3)c2)c1-n1nccn1 [Example 111, [(2R,5R)-2-Methyl-5-(3-pyrimidin-2-yl-benzyl)-morpholin-4-yl]-(3-methyl-2-[1,2,3]triazol-2-yl-phenyl)-methanone]",–,–

# Continued, compound first:
SMILES,IC50 (human orexin-1 receptor; [1]) [nM],IC50 (human orexin-2 receptor; [2]) [nM],IC50 (CYP3A4) [nM],IC50 (human orexin-1 receptor) [nM],IC50 (human orexin-2 receptor) [nM]
"Cc1ccc(C(=O)N2CCOC[C@H]2Cc2cccc(-c3ncon3)c2)c(-n2nccn2)c1 [Example 81, (4-Methyl-2-[1,2,3]triazol-2-yl-phenyl)-[(R)-3-(3-[1,2,4]oxadiazol-3-yl-benzyl)-morpholin-4-yl]-methanone]",2,212,33000,–,–
"O=C(c1cc(Cl)ccc1-n1nccn1)N1CCOC[C@H]1Cc1cccc(-c2ncon2)c1 [Example 84, (5-Chloro-2-[1,2,3]triazol-2-yl-phenyl)-[(R)-3-(3-[1,2,4]oxadiazol-3-yl-benzyl)-morpholin-4-yl]-methanone]",5,246,21000,–,–
"Cc1cc(C(=O)N2CCOC[C@H]2Cc2cccc(-c3ncon3)c2)c(-n2nccn2)cc1C [Example 85, (4,5-Dimethyl-2-[1,2,3]triazol-2-yl-phenyl)-[(R)-3-(3-[1,2,4]oxadiazol-3-yl-benzyl)-morpholin-4-yl]-methanone]",1,21,25000,–,–
"O=C(c1ccccc1-n1nccn1)N1CCOC[C@H]1Cc1ccc(Cl)c(-c2ncon2)c1 [Example 90, [(R)-3-(4-Chloro-3-[1,2,4]oxadiazol-3-yl-benzyl)-morpholin-4-yl]-(2-[1,2,3]triazol-2-yl-phenyl)-methanone]",12,475,21000,–,–
"O=C(c1cc(F)c(F)cc1-n1nccn1)N1CCOC[C@H]1Cc1cccc(-n2nccn2)c1 [Example 91, (4,5-Difluoro-2-[1,2,3]triazol-2-yl-phenyl)-[(R)-3-(3-[1,2,3]triazol-2-yl-benzyl)-morpholin-4-yl]-methanone]",10,612,17000,–,–
"COc1ccc(C(=O)N2CCOC[C@H]2Cc2cccc(-n3nccn3)c2)c(-n2nccn2)c1 [Example 93, (4-Methoxy-2-[1,2,3]triazol-2-yl-phenyl)-[(R)-3-(3-[1,2,3]triazol-2-yl-benzyl)-morpholin-4-yl]-methanone]",–,–,> 50000,5,2090
"COc1ccc(C(=O)N2CCOC[C@H]2Cc2cc(-n3nccn3)ccc2F)c(-n2nccn2)c1 [Example 95, [(R)-3-(2-Fluoro-5-[1,2,3]triazol-2-yl-benzyl)-morpholin-4-yl]-(4-methoxy-2-[1,2,3]triazol-2-yl-phenyl)-methanone]",11,1200,49000,–,–
"Cc1ccc(C(=O)N2C[C@H](C)OC[C@H]2Cc2cccc(-n3nccn3)c2)c(-n2nccn2)c1 [Example 96, [(2S,5R)-2-Methyl-5-(3-[1,2,3]triazol-2-yl-benzyl)-morpholin-4-yl]-(4-methyl-2-[1,2,3]triazol-2-yl-phenyl)-methanone]",–,–,28000,10,390
"Cc1cccc(C(=O)N2C[C@@H](C)OC[C@H]2Cc2cccc(-n3nccn3)c2)c1-n1nccn1 [Example 97, [(2R,5R)-2-Methyl-5-(3-[1,2,3]triazol-2-yl-benzyl)-morpholin-4-yl]-(3-methyl-2-[1,2,3]triazol-2-yl-phenyl)-methanone]",3,237,11000,–,–
"Cc1cc(C(=O)N2C[C@@H](C)OC[C@H]2Cc2cccc(-n3nccn3)c2)c(-n2nccn2)cc1C [Example 98, (4,5-Dimethyl-2-[1,2,3]triazol-2-yl-phenyl)-[(2R,5R)-2-methyl-5-(3-[1,2,3]triazol-2-yl-benzyl)-morpholin-4-yl]-methanone]",1,24,9700,–,–
"Cc1ccc(C(=O)N2C[C@@H](C)OC[C@H]2Cc2cccc(-n3nccn3)c2)c(-n2nccn2)c1 [Example 101, [(2R,5R)-2-Methyl-5-(3-[1,2,3]triazol-2-yl-benzyl)-morpholin-4-yl]-(4-methyl-2-[1,2,3]triazol-2-yl-phenyl)-methanone]",–,–,9700,2,155
"Cc1ccc(C(=O)N2CCOC[C@H]2Cc2cc(Cl)cc(-n3nccn3)c2)c(-n2nccn2)c1 [Example 105, [(R)-3-(3-Chloro-5-[1,2,3]triazol-2-yl-benzyl)-morpholin-4-yl]-(4-methyl-2-[1,2,3]triazol-2-yl-phenyl)-methanone]",–,101,21000,2,–
